Measured values published in ChEMBL document CHEMBL4725331, “An investigative study of antitumor properties of a novel thiazolo[4,5-d]pyrimidine small molecule revealing superior antitumor activity with CDK1 selectivity and potent pro-apoptotic properties” (Bioorg Med Chem, 2020).

Tests used:
HCT-116 [1] = experiment: Induction of apoptosis in human HCT116 cells assessed as up regulation of cytochrome C expression by RT-PCR analysis relative to untreated control; format: functional
UACC-257 [2] = experiment: Antiproliferative activity against human UACC-257 cells assessed as inhibition of cell growth measured after 48 hrs by SRB assay; format: functional
NCI-H522 = experiment: Antiproliferative activity against human NCI-H522 cells assessed as inhibition of cell growth at 10 uM measured after 48 hrs by SRB assay relative to control; format: functional
WI-38 [3] = experiment: Induction of apoptosis in human WI-38 cells assessed as necrotic cells at IC50 incubated for 48 hrs by annexin-V FITC and propidium iodide staining based flow cytometry analysis (reference value: 0.39 %); format: cell-based; conditions: wi-38, 48 h
Hs-578T = experiment: Antiproliferative activity against human Hs-578T cells assessed as inhibition of cell growth measured after 48 hrs by SRB assay; format: functional
SN12C [4] = experiment: Antiproliferative activity against human SN12C cells assessed as inhibition of cell growth measured after 48 hrs by SRB assay; format: functional
EKVX = experiment: Antiproliferative activity against human EKVX cells assessed as inhibition of cell growth measured after 48 hrs by SRB assay; format: functional
UO-31 = experiment: Antiproliferative activity against human UO-31 cells assessed as inhibition of cell growth measured after 48 hrs by SRB assay; format: functional
NCI-H226 = experiment: Antiproliferative activity against human NCI-H226 cells assessed as inhibition of cell growth measured after 48 hrs by SRB assay; format: functional
HCT-116 [5] = experiment: Cell cycle arrest in human HCT-116 cells assessed as accumulation in G0/G1 phase at IC50 concentration incubated for 48 hrs by propidium iodide staining based flow cytometry analysis (reference value: 42.5 %); format: functional
SW-620 = experiment: Antiproliferative activity against human SW-620 cells assessed as inhibition of cell growth at 10 uM measured after 48 hrs by SRB assay relative to control; format: functional
HCT-116 [6] = experiment: Antiproliferative activity against human HCT-116 cells assessed as inhibition of cell growth at 10 uM measured after 48 hrs by SRB assay relative to control; format: functional
DU-145 [7] = experiment: Antiproliferative activity against human DU-145 cells assessed as inhibition of cell growth measured after 48 hrs by SRB assay; format: functional
HCT-116 [8] = experiment: Induction of apoptosis in human HCT116 cells assessed as increase in Bax gene expression by RT-PCR analysis relative to untreated control; format: functional
NCI-H460 = experiment: Antiproliferative activity against human NCI-H460 cells assessed as inhibition of cell growth measured after 48 hrs by SRB assay; format: functional
SN12C [9] = experiment: Antiproliferative activity against human SN12C cells assessed as inhibition of cell growth at 10 uM measured after 48 hrs by SRB assay relative to control; format: functional
RXF 393 [10] = experiment: Antiproliferative activity against human RXF 393 cells assessed as inhibition of cell growth at 10 uM measured after 48 hrs by SRB assay relative to control; format: functional
WI-38 [11] = experiment: Induction of apoptosis in human WI-38 cells assessed as late apoptotic cells at IC50 incubated for 48 hrs by annexin-V FITC and propidium iodide staining based flow cytometry analysis (reference value: 0.29 %); format: cell-based; conditions: wi-38, 48 h
HCT-116 [12] = experiment: Cell cycle arrest in human HCT-116 cells assessed as accumulation in G2/M phase phase at IC50 concentration incubated for 48 hrs by propidium iodide staining based flow cytometry analysis (reference value: 13.75 %); format: functional
RPMI-8226 = experiment: Antiproliferative activity against human RPMI-8226 cells assessed as inhibition of cell growth at 10 uM measured after 48 hrs by SRB assay relative to control; format: functional
SF-295 = experiment: Antiproliferative activity against human SF-295 cells assessed as inhibition of cell growth measured after 48 hrs by SRB assay; format: functional
RXF 393 [13] = experiment: Antiproliferative activity against human RXF 393 cells assessed as inhibition of cell growth measured after 48 hrs by SRB assay; format: functional
DU-145 [14] = experiment: Antiproliferative activity against human DU-145 cells assessed as inhibition of cell growth at 10 uM measured after 48 hrs by SRB assay relative to control; format: functional
NCI/ADR-RES = experiment: Antiproliferative activity against human NCI/ADR-RES cells assessed as inhibition of cell growth at 10 uM measured after 48 hrs by SRB assay relative to control; format: functional
MDA-MB-468 = experiment: Antiproliferative activity against human MDA-MB-468 cells assessed as inhibition of cell growth measured after 48 hrs by SRB assay; format: functional
CAKI-1 = experiment: Antiproliferative activity against human CAKI-1 cells assessed as inhibition of cell growth measured after 48 hrs by SRB assay; format: functional
T47D = experiment: Antiproliferative activity against human T47D cells assessed as inhibition of cell growth at 10 uM measured after 48 hrs by SRB assay relative to control; format: functional
786-0 = experiment: Antiproliferative activity against human 786-0 cells assessed as inhibition of cell growth measured after 48 hrs by SRB assay; format: functional
UACC-257 [15] = experiment: Antiproliferative activity against human UACC-257 cells assessed as inhibition of cell growth at 10 uM measured after 48 hrs by SRB assay relative to control; format: functional
HOP-62 = experiment: Antiproliferative activity against human HOP-62 cells assessed as inhibition of cell growth measured after 48 hrs by SRB assay; format: functional
NCI-H322M = experiment: Antiproliferative activity against human NCI-H322M cells assessed as inhibition of cell growth measured after 48 hrs by SRB assay; format: functional
WI-38 [16] = experiment: Cell cycle arrest in human WI-38 cells assessed as accumulation in G0/G1 phase at IC50 concentration incubated for 48 hrs by propidium iodide staining based flow cytometry analysis (reference value: 57.68 %); conditions: wi-38, 48 h
MCF7 = experiment: Antiproliferative activity against human MCF7 cells assessed as inhibition of cell growth measured after 48 hrs by SRB assay; format: functional
[17] = read-out: LC50 (the source's name)

COc1ccc(-n2c(=S)sc3c(Cl)nc(C)nc32)c(OC)c1
fold change (FC) (HCT-116 [1]): 8.02 | GI50 (UACC-257 [2]): 2.34 µM | TGI (UACC-257 [2]): 5.62 µM | CC50 (UACC-257 [2]; [17]): 18.2 µM | inhibition at 10 µM (NCI-H522): > 50% | Activity (WI-38 [3]): 1.41% | GI50 (Hs-578T): 2.63 µM | TGI (Hs-578T): 7.76 µM | CC50 (Hs-578T; [17]): > 100 µM | GI50 (SN12C [4]): 2.82 µM | TGI (SN12C [4]): 9.12 µM | CC50 (SN12C [4]; [17]): 36.3 µM | GI50 (EKVX): 4.57 µM | TGI (EKVX): 17 µM | CC50 (EKVX; [17]): 43.6 µM | GI50 (UO-31): 3.63 µM | TGI (UO-31): 15.5 µM | CC50 (UO-31; [17]): 39.8 µM | GI50 (NCI-H226): 3.24 µM | TGI (NCI-H226): 12 µM | CC50 (NCI-H226; [17]): 44.7 µM | Activity (HCT-116 [5]): 22.42% | inhibition at 10 µM (SW-620): > 50% | inhibition at 10 µM (HCT-116 [6]): > 50% | GI50 (DU-145 [7]): 1.86 µM | TGI (DU-145 [7]): 3.24 µM | CC50 (DU-145 [7]; [17]): 5.75 µM | fold change (FC) (HCT-116 [8]): 9.9 | GI50 (NCI-H460): 3.09 µM | TGI (NCI-H460): 9.12 µM | CC50 (NCI-H460; [17]): 49 µM | inhibition at 10 µM (SN12C [9]): > 50% | inhibition at 10 µM (RXF 393 [10]): > 50% | Activity (WI-38 [11]): 2.99% | Activity (HCT-116 [12]): 29.82% | inhibition at 10 µM (RPMI-8226): > 50% | GI50 (SF-295): 7.08 µM | TGI (SF-295): 19.9 µM | CC50 (SF-295; [17]): 46.8 µM | GI50 (RXF 393 [13]): 2 µM | TGI (RXF 393 [13]): 4.07 µM | CC50 (RXF 393 [13]; [17]): 8.32 µM | inhibition at 10 µM (DU-145 [14]): > 50% | inhibition at 10 µM (NCI/ADR-RES): > 50% | GI50 (MDA-MB-468): 2 µM | TGI (MDA-MB-468): 6.61 µM | CC50 (MDA-MB-468; [17]): 93.3 µM | GI50 (CAKI-1): 6.17 µM | TGI (CAKI-1): 19.5 µM | CC50 (CAKI-1; [17]): 45.7 µM | inhibition at 10 µM (T47D): > 50% | GI50 (786-0): 4.47 µM | TGI (786-0): 20.4 µM | CC50 (786-0; [17]): 81.3 µM | inhibition at 10 µM (UACC-257 [15]): > 50% | GI50 (HOP-62): 2.57 µM | TGI (HOP-62): 7.76 µM | CC50 (HOP-62; [17]): 26.9 µM | GI50 (NCI-H322M): 2.51 µM | TGI (NCI-H322M): 6.46 µM | CC50 (NCI-H322M; [17]): 22.4 µM | Activity (WI-38 [16]): 54.45% | GI50 (MCF7): 3.63 µM | TGI (MCF7): 15.5 µM | CC50 (MCF7; [17]): 87.1 µM
